Test results as given in US11413278B2, “Compounds and methods for promoting stress resistance” (priority 2015, dated 2022).
Where two headings read alike, the source gives them in different places.

Legend:
NRF2 = test: qPCR analysis of NRF2-regulated genes; format: cell-based, human; conditions: for fold induction at 10 µM: Homo sapiens
Summary of the method: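 Expression of HMOX1, NQO1, GCLC and GSTM1 measured by qPCR relative to B2M, PPIA and GAPDH. Cells were WI-38 fibroblasts exposed 24 hrs to 10 μM compound, with RNA and cDNA prepared via Cells-to-Ct. Where stated, cells were first transfected 36 hrs with FOXO3 or NRF2 siRNA at 10 nM.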

WI-38 cells [1] = test: Propidium iodide (PI) cell-death imaging upon H2O2 stress; format: cell-based, human; conditions: for Assay 7: H2O2-resistant, at 10 uM, validated by propidium iodide (PI) cell-death imaging: w/H2O2, 3 hrs/4 hrs/5 hrs, YES/NO; for cytotoxicity at 10 µM: Homo sapiens, WI-38
[2] = Summary score for characterization of 38 core set hits; conditions: for D = Triple resistant: 2-point score, multiplex resistance (cadmium, MMS, H2O2); for S = Sum of Negative scores: human; for C = H2O2- & Cd-resistant: score, resistance to both H2O2 and cadmium
Summary of the method: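 First, H2O2-resistance screen hits were characterized for longevity-related phenotypes, and each major one (multiplex resistance, FOXO3/NRF2 activation, mTOR down-regulation) received 2 points. Next, C. elegans lifespan extension was scored 0 to 2 from 4 to 6 trials. Finally, human-cell genotoxicity or toxicity subtracted a point.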

WI-38 cells [3] = test: Long-term effects on cell viability (5 days, ATP; morphology, PI imaging); format: cell-based; conditions: 10 μM; for Luminescence signal for ATP measurement, day-1 Average / Luminescence signal for ATP measurement, day-2 Average / Luminescence signal for ATP measurement, day-3 Average / Luminescence signal for ATP measurement, day-4 Average / Luminescence signal for ATP measurement, day-5 Average / viability at 10 µM: Batch 1; for Luminescence signal for ATP measurement, day-1 Average / Luminescence signal for ATP measurement, day-2 Average / Luminescence signal for ATP measurement, day-3 Average / Luminescence signal for ATP measurement, day-4 Average / Luminescence signal for ATP measurement, day-5 Average: n = 6, day-0 luminescence = 320956 ± 24708; for viability at 10 µM: Homo sapiens, WI-38, 120 h, DMSO ctrl = 100.0%, read-out: ATP luminescence by day-5 normalized; for Luminescence signal for ATP measurement, day-5 Average / viability at 10 µM: day-5; for O = Potential toxicity / Q = Potential toxicity: human, 5 days;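 on Luminescence signal for ATP measurement, day-2 Average: compounds at 10 µM with ATP read daily over 5 days of treatment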;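 on Luminescence signal for ATP measurement, day-3 Average: compounds at 10 µM with ATP read daily over 5 days of treatment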;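 on Luminescence signal for ATP measurement, day-4 Average: compounds at 10 µM with ATP read daily over 5 days of treatment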;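 on Luminescence signal for ATP measurement, day-5 Average: compounds at 10 µM with ATP read daily over 5 days of treatment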
[4] = test system: human dermal fibroblast (HDF) primary cells; test: H2O2-resistance in primary human dermal fibroblasts; format: cell-based; conditions: for fold induction at 10 µM: Homo sapiens; for Assay 6: H2O2-resistant, at 10 uM, human dermal fibroblast (HDF) primary cells: YES/NO
[5] = 24 h, Assay 12(o), at 10 uM, qPCR, read-out: Induction of NRF2-regulated genes: GCLC normalized fold-change
[6] = 24 h, Assay 12(o), at 10 uM, qPCR, read-out: Induction of NRF2-regulated genes: HMOX1 normalized fold-change
[7] = rounded fold change, WI-38 cells, 10 μM, 24 hrs (RP11 for Gr-1D, RP29 for Gr-4D), read-out: Summary of effects on NRF2-regulated genes: HMOX1
[8] = rounded fold change, WI-38 cells, 10 μM, 24 hrs, read-out: Summary of effects on NRF2-regulated genes: GCLC
[9] = 10 μM, 24 hrs, WI-38 cells, qPCR, normalized to B2M, n = 4, read-out: GCLC expression, normalized fold change (NRF2-regulated gene)
[10] = 10 μM, 24 hrs, WI-38 cells, qPCR, normalized to B2M, n = 4, read-out: HMOX1 expression, normalized fold change (NRF2-regulated gene)
[11] = WI-38 cells, 10 μM, 24 hrs, n=4, qPCR normalized by B2M, read-out: GCLC Normalized fold change
[12] = WI-38 cells, 10 μM, 24 hrs, n=4, qPCR normalized by B2M, read-out: GSTM1 Normalized fold change
[13] = WI-38 cells, 10 μM, 24 hrs, n=4, qPCR normalized by B2M, read-out: HMOX1 Normalized fold change
[14] = WI-38 cells, 10 μM, 24 hrs, n=4, qPCR normalized by B2M, read-out: NQO1 Normalized fold change
[15] = H2O2 3 hrs, 10 uM, n = 6, negative control 5.44% ± 0.79%, read-out: Percentage of propidium iodide-positive dead cells (under H2O2 stress treatment), 3 hrs
[16] = H2O2 4 hrs, 10 uM, n = 6, negative control 16.81% ± 1.42%, read-out: Percentage of propidium iodide-positive dead cells (under H2O2 stress treatment), 4 hrs
[17] = H2O2 5 hrs, 10 uM, n = 6, negative control 22.50% ± 1.53%, read-out: Percentage of propidium iodide-positive dead cells (under H2O2 stress treatment), 5 hrs
[18] = pre-treatment at 10 uM, 3.5 hours of H2O2, DMSO control 27.4% ± 6.5%, */**/*** = reduced by one/two/three standard deviations, read-out: Percentage of propidium iodide-positive dead cells (under H2O2 stress treatment), at 10 uM
[19] = Experiment 1, HDF cells, read-out: Experiment 1, HDF cells (under H2O2 stress treatment), at 10 uM (fold change)
[20] = Experiment 2, HDF cells, read-out: Experiment 2, HDF cells (under H2O2 stress treatment), at 10 uM (fold change)
[21] = 24 h, Assay 12(o), at 10 uM, qPCR, read-out: Induction of NRF2-regulated genes: NQO1 normalized fold-change
[22] = rounded fold change, WI-38 cells, 10 μM, 24 hrs (RP29 for Gr-4D), read-out: Summary of effects on NRF2-regulated genes: NQO1
[23] = 10 μM, 24 hrs, WI-38 cells, qPCR, normalized to B2M, n = 4, read-out: NQO1 expression, normalized fold change (NRF2-regulated gene)

Row | Compound | F = Potential NRF2 Activation (NRF2; 2-point score) | fold induction at 10 µM (NRF2; [11]) | fold induction at 10 µM (NRF2; [12]) | fold induction at 10 µM (NRF2; [13]) | fold induction at 10 µM (NRF2; [14]) | F = Potential NRF2 Activation (NRF2; summary score) | Assay 7: H2O2-resistant, at 10 uM, validated by propidium iodide (PI) cell-death imaging (WI-38 cells [1]; 10 uM) | cytotoxicity at 10 µM (WI-38 cells [1]; [15]) | cytotoxicity at 10 µM (WI-38 cells [1]; [18]) | D = Triple resistant [2] | S = Sum of Negative scores [2] | C = H2O2- & Cd-resistant [2] | Luminescence signal for ATP measurement, day-1 Average (WI-38 cells [3]) | Luminescence signal for ATP measurement, day-2 Average (WI-38 cells [3]) | Luminescence signal for ATP measurement, day-3 Average (WI-38 cells [3]) | Luminescence signal for ATP measurement, day-4 Average (WI-38 cells [3]) | Luminescence signal for ATP measurement, day-5 Average (WI-38 cells [3]) | viability at 10 µM (WI-38 cells [3]) | O = Potential toxicity (WI-38 cells [3]) | Q = Potential toxicity (WI-38 cells [3]) | further results
1 | N=C1S/C(=C\c2cn(-c3ccccc3)nc2-c2cccs2)C(=O)N1c1nccs1 [Gr-6C] | 0 | 0.331 | 0.914 | 2.09 | 0.87 | 0 | YES | 1.17% | 7.9% | 0 | 2 | 0 | 435273 | 542716 | 574765 | 624471 | 548865 | 53.5% | 0 | 1 | fold induction at 10 µM (NRF2; [5]): 0.33; fold induction at 10 µM (NRF2; [6]): 2.09; fold induction at 10 µM (NRF2; [7]): 2.09; fold induction at 10 µM (NRF2; [8]): 0.33; fold induction at 10 µM (NRF2; [9]): 0.33; fold induction at 10 µM (NRF2; [10]): 2.09; cytotoxicity at 10 µM (WI-38 cells [1]; [16]): 1.39%; cytotoxicity at 10 µM (WI-38 cells [1]; [17]): 6.12%; fold induction at 10 µM [4, 19]: 0.01; fold induction at 10 µM [4, 20]: 50.6; Assay 6: H2O2-resistant, at 10 uM, human dermal fibroblast (HDF) primary cells [4]: YES
2 | O=C(NCc1cccnc1)/C(=C\c1cccc(Oc2ccccc2)c1)S(=O)(=O)c1ccccc1 [Gr-7A] | 0 | 0.602 | 1.09 | 15.2 | 0.779 | 0 | YES | 2.78% | 9.9% | 0 | 1 | 0 | 463265 | 192116 | 67526 | 48480 | 44670 | 4.4% | 0 | 1 | fold induction at 10 µM (NRF2; [5]): 0.6; fold induction at 10 µM (NRF2; [6]): 15.2; fold induction at 10 µM (NRF2; [21]): 0.78; fold induction at 10 µM (NRF2; [7]): 15.2; fold induction at 10 µM (NRF2; [22]): 0.78; fold induction at 10 µM (NRF2; [8]): 0.6; fold induction at 10 µM (NRF2; [9]): 0.6; fold induction at 10 µM (NRF2; [10]): 15.2; fold induction at 10 µM (NRF2; [23]): 0.78; cytotoxicity at 10 µM (WI-38 cells [1]; [16]): 2.32%; cytotoxicity at 10 µM (WI-38 cells [1]; [17]): 3.52%; fold induction at 10 µM [4, 19]: 1.2; fold induction at 10 µM [4, 20]: 4.11; Assay 6: H2O2-resistant, at 10 uM, human dermal fibroblast (HDF) primary cells [4]: YES
3 | CNC(=O)/C(C#N)=C/c1c(Oc2ccc(C(C)(C)C)cc2)nc2ccccn2c1=O [Gr-5D] | 2 | 0.886 | 1.17 | 2.49 | 1.78 | 2 | YES | 3.28% | 6.4% | 0 | 0 | 0 | 498641 | 763806 | 920681 | 1052285 | 1110868 | 108% | 0 | 0 | TXNIP expression, normalized fold change (printed in the column of NRF2-regulated genes) (NRF2; 10 μM, 24 hrs, WI-38 cells, qPCR, normalized to B2M, n = 4): TXNIP 0.67, fold; Induction of NRF2-regulated genes: TXNIP normalized fold-change (NRF2; Assay 12(o), at 10 uM, qPCR): TXNIP 0.67, fold-change; Potential NRF2 Activation (>=2 target genes induced, by >=1.5-fold) (NRF2; Assay 13(p)): YES; fold induction at 10 µM (NRF2; [6]): 2.49; fold induction at 10 µM (NRF2; [21]): 1.78; fold induction at 10 µM (NRF2; [7]): 2.49; fold induction at 10 µM (NRF2; [22]): 1.78; fold induction at 10 µM (NRF2; 10 μM, 24 hrs, WI-38, read-out: Expression of at least two NRF2 target genes): > 1.5; fold induction at 10 µM (NRF2; [10]): 2.49; fold induction at 10 µM (NRF2; [23]): 1.78; Summary of effects on NRF2-regulated genes: TXNIP (NRF2; fold change, WI-38 cells, 10 μM, 24 hrs): 0.67,; fold induction at 10 µM [4, 19]: 0.18; fold induction at 10 µM [4, 20]: 2.66; Assay 6: H2O2-resistant, at 10 uM, human dermal fibroblast (HDF) primary cells [4]: YES
4 | Cc1cc(N)n(-c2ccccc2C(=O)O)n1 [Gr-6A] | 0 | 1.03 | 1.09 | 1.1 | 1.02 | 0 | YES | 4.38% | 15.6% | 2 | 0 | 1 | 581273 | 717601 | 804970 | 1007061 | 986943 | 96.1% | 0 | 0 | fold induction at 10 µM [4, 19]: 10.3; fold induction at 10 µM [4, 20]: 39.3; Assay 6: H2O2-resistant, at 10 uM, human dermal fibroblast (HDF) primary cells [4]: YES
5 | O=C(Nc1cccc(Cl)c1)c1ccc([N+](=O)[O-])o1 [Gr-1D] | 0 | 1.08 | 1.17 | 4.68 | 0.878 | 0 | YES | 6.27% | 36.7% | 0 | 1 | 1 | 396843 | 497248 | 542643 | 797305 | 865168 | 84.3% | 1 | 0 | fold induction at 10 µM (NRF2; [7]): 4.68; fold induction at 10 µM (NRF2; [10]): 4.68; Summary of effects on NRF2-regulated genes: HMOX1, second run (NRF2; run RP42 (Gr-1D) / RP52 (Gr-4D), WI-38 cells, 10 μM): 5.86,; Summary of effects on NRF2-regulated genes: GCLC, second run (NRF2; run RP42 (Gr-1D), WI-38 cells, 10 μM): 0.79,; cytotoxicity at 10 µM (WI-38 cells [1]; [16]): 5.83%; fold induction at 10 µM [4, 19]: 2.79; fold induction at 10 µM [4, 20]: 49.3; Assay 6: H2O2-resistant, at 10 uM, human dermal fibroblast (HDF) primary cells [4]: YES
